Where “and” joins values, the source holds several entries; their conditions need not be identical. Identical values can stand only once.
Columns and labels:
[1] = Apomorphine plasma levels after buccal inserts; type: in vivo, human; details: one subject, insert containing 20 mg
Experimental: 1.1 mm thick inserts containing 5, 10 and 20 mg of apomorphine were tested for drug release in six subjects. The levels of drug observed in plasma was 0.2 to 0.8 ng/ml for five of the subjects and reached 5 ng/ml for one subject after administering an insert containing 20 mg of apomorphine.

[2] = Apomorphine in-vivo release, 0.6 mm inserts; design: species or system human; details: individual subjects 1-8
Experimental: Inserts were prepared of thickness 0.6 mm and the release profile in-vitro compared with those of the 1.1 mm thick inserts.
A study was carried out in eight subjects. These included two subjects from the previous study and six new subjects.

[3] = Oral dissolution model, chemical (HPLC) assay of tobramycin; type: physicochemical; details: for Chemical Dissolution (concentration in eluate): cells 1-3
Experimental: (§1) Six cells were sterilised by autoclaving and then connected to a Duran bottle of sterile water. The flow of water into the cell was controlled by a peristaltic pump (Watson Marlow, Falmouth, UK) to a rate of 0.5 ml/minute. Two different dosage forms (5.8 and 10.5 mg tobramycin) as 9.2 mm discs of thickness 1.7 mm and 130 mg weight were tested by placing directly under the inflow tube and media allowed to flow slowly across them. The dissolution cells were kept at an angle of about 10 degrees to the horizontal to allow flow away from the test units and towards the outflow tube where it was either run to waste or sampled for test. Samples of 2 ml were collected at various timepoints up to 3 hours and divided for chemical (HPLC) and microbiological assay. Tobramycin chemical analysis was carried out using a Dionex HPLC method. The microbiological assay was carried out by double diluting the eluted fractions with broth. These were then spiked with a known number of micro-organisms and incubated. The last tube without growth was then noted. By carrying this out in parallel against a series of prepared standards the inhibitory concentration could be derived.

micro-organisms = test: Oral dissolution model, microbiological assay of eluted fractions; type: cell-based; details: cells 1-3
Experimental: as §1

A.Xylosoxidans = test: MIC microbiological assay; type: cell-based; details: single drug
From the text: (§2) A microbiological assay was developed to examine the efficacy of the colistin sulphate and tobramycin when loaded and released from the polymer at the same time. organisms were selected which were sensitive to only one of the antibiotics.

S.Aureus = test: MIC microbiological assay; type: cell-based; details: single drug
From the text: as §2

[4] = Microbiological testing in-vitro, each drug alone; type: cell-based; details: examined alone
From the text: as §2

[5] = In-vivo release of colistin sulphate and tobramycin from buccal inserts; details: four subjects
From the text: The release of the two drugs was examined in four healthy subjects. The insert was placed against the buccal mucosa in the upper gingival tissue. Eating and smoking was not permitted during the study, drinking of tea, coffee or soft drinks was allowed.

[6] = Lysozyme in-vitro release from dried slices (BCA assay); type: physicochemical; details: five dried slices in 30 ml demineralised water, after 24 hours
Experimental: To determine the release profile of lysozyme from dried slices, five slices (0.86 g) were placed in a bottle and 30 ml of demineralised water added. Samples were taken regularly and analysed for protein using the BCA assay. A total of 22.9 mg (88.4%) was released after 24 hours.

CN1CCc2cccc3c2[C@H]1Cc1ccc(O)c(O)c1-3 [Apomorphine]
levels of drug observed in plasma [1]: 5 ng/mL | % RELEASE ([2]; 10 mg): 6.4% and 42.8% and 30.4% and 10.9% and 0.48% and 25.1% and 26.0% and 3.4% | % RELEASE ([2]; 18 mg): 2.64% and 15.2% and 26.3% and 21.5% and 4.1% and 7.5% and 49.2% and 19.4% | % RELEASE ([2]; 27 mg (am.)): 0.0% and 1.1% and 24.8% and 9.9% and 2.7% and 6.2% and 17.7% and 1.3% | % RELEASE ([2]; 27 mg (pm.)): 0.0% and 6.2% and 32.6% and 23.6% and 4.4% and 1.3% and 29.6% and 3.0%

NC[C@H]1O[C@H](O[C@H]2[C@H](O)[C@@H](O[C@H]3O[C@H](CO)[C@@H](O)[C@H](N)[C@H]3O)[C@H](N)C[C@@H]2N)[C@H](N)C[C@@H]1O [Tobramycin]
Chemical Dissolution (concentration in eluate) ([3]; 5 mg Dose, 0.25 hrs): 35.5 µg/mL and 26.7 µg/mL and 33.4 µg/mL | Chemical Dissolution (concentration in eluate) ([3]; 5 mg Dose, 1 hrs): 23.7 µg/mL and 17.7 µg/mL and 24.0 µg/mL | Chemical Dissolution (concentration in eluate) ([3]; 5 mg Dose, 2 hrs): 14.0 µg/mL and 15.8 µg/mL and 18.6 µg/mL | Chemical Dissolution (concentration in eluate) ([3]; 5 mg Dose, 3 hrs): 14.0 µg/mL and 12.0 µg/mL and 15.4 µg/mL | Chemical Dissolution (concentration in eluate) ([3]; 10 mg Dose, 0.25 hrs): 105.6 µg/mL and 85.3 µg/mL and 64.4 µg/mL | Chemical Dissolution (concentration in eluate) ([3]; 10 mg Dose, 1 hrs): 65.4 µg/mL and 44.6 µg/mL and 34.8 µg/mL | Chemical Dissolution (concentration in eluate) ([3]; 10 mg Dose, 2 hrs): 48.7 µg/mL and 36.9 µg/mL and 27.9 µg/mL | Chemical Dissolution (concentration in eluate) ([3]; 10 mg Dose, 3 hrs): 36.5 µg/mL and 32.0 µg/mL and 27.0 µg/mL | time for which controlled release is maintained ([3]; oral dissolution model, 0.5 ml/minute): 3 h | Microbiological Measure of Activity (derived concentration) (micro-organisms; 5 mg Dose, 0.25 hrs): 32 mcg/ml and 36 mcg/ml | Microbiological Measure of Activity (derived concentration) (micro-organisms; 5 mg Dose, 2 hrs): 16 mcg/ml and 18 mcg/ml | Microbiological Measure of Activity (derived concentration) (micro-organisms; 5 mg Dose, 3 hrs): 16 mcg/ml and 18 mcg/ml | Microbiological Measure of Activity (derived concentration) (micro-organisms; 10 mg Dose, 0.25 hrs): 64 mcg/ml | Microbiological Measure of Activity (derived concentration) (micro-organisms; 10 mg Dose, 1 hrs): 64 mcg/ml and 32 mcg/ml | Microbiological Measure of Activity (derived concentration) (micro-organisms; 10 mg Dose, 2 hrs): 32 mcg/ml and 16 mcg/ml | Microbiological Measure of Activity (derived concentration) (micro-organisms; 10 mg Dose, 3 hrs): 32 mcg/ml and 16 mcg/ml | MIC (A.Xylosoxidans): >256 μ μgml^−1 | MIC (S.Aureus): 4 μ μgml^−1 | microbiological activity [4]: microbiologically active

Colistin Sulphate
MIC (A.Xylosoxidans): 8 μ μgml^−1 | MIC (S.Aureus): >32 μ μgml^−1 | microbiological activity [4]: microbiologically active | Mean Amount of Drug Released (%) ([5]; insert thickness 0.4 mm, 1 Hour): 48.8% | Mean Amount of Drug Released (%) ([5]; insert thickness 0.4 mm, 3 Hours): 98.6% | Mean Amount of Drug Released (%) ([5]; insert thickness 0.6 mm, 1 Hour): 32.4% | Mean Amount of Drug Released (%) ([5]; insert thickness 0.6 mm, 3 Hours): 92.8% | Mean Amount of Drug Released (%) ([5]; insert thickness 0.8 mm, 1 Hour): 26.7% | Mean Amount of Drug Released (%) ([5]; insert thickness 0.8 mm, 3 Hours): 83.4% | Mean Amount of Drug Released (%) ([5]; insert thickness 1.1 mm, 3 Hours): 57.9%

Lysozyme
total released [6]: 22.9 mg | total released (%) [6]: 88.4%
